Assays:
[1] = test system: Subjects with RLS; assay: Medical Outcomes Study (MOS) Sleep Scale, placebo-controlled study in RLS subjects; format: in vivo, human; conditions: change from Baseline to EoT; PPS n = 13
Protocol: (§1) The study multi-centre, randomized, double-blind, parallel-groups, placebo-controlled study with 2 treatment arms, oral HPPD inhibitor (2-(2-nitro-4-trifluoromethylbenzoyl)-1,3-cyclohexanedione) and placebo. Subjects were randomized to either treatment with an HPPD inhibitor or placebo in a 2:1 ratio. The subjects were dosed with 4 mg on day 1, and 2 mg/day on days 2-14. The total duration of treatment with study drug for each subject was 14 consecutive days ending at the day of the final sleep lab assessment (Day 14), with a follow-up examination 29 days after Baseline.
(§2) Efficacy parameters were changes between Baseline and end of treatment in objective measures of Periodic Limb Movements (PLM) and sleep efficiency and in investigator evaluations of severity of RLS symptoms as well as in subject's report on severity of RLS symptoms, sleep disturbances and depressive feelings. Parameters measured included: • Periodic Limb Movement (PLM) Index, defined as the number of PLM events occurring during time-in-bed (PLMI/h TIB) • Periodic Limb Movements during Sleep Index, defined as the number of PLMs per hour of total sleep time (PLMSI/h TST) • PLM arousal index, defined as the number of PLM with arousals per hour of total sleep time (PLMSAI/h TST) • Periodic Limb Movements during wakefulness index, defined as the number of PLMs per hour occurring during wakefulness within time-in-bed (PLMWI/h TIB) • Sleep Efficiency (SE) expressed as the percentage total sleep time (TST) of total time in bed (TIB) • Total Sleep Time (TST) • Total number of arousals per TST • Sleep latency • Restless Legs Scale—6 items (RLS-6) (Kohnen et al, 2004) • IRLS total score change from start of treatment to end • Time to requiring rescue medication (defined as time to dropout due to the need of rescue medication for intolerable RLS symptoms) • Physicians' Global Impression, rated by the Clinical Global Impressions Scale (CGI): severity, change and treatment effect • CGI responders defined as the proportion of subjects who improved “much” or “very much” on CGI item “change”. • Patients' Global Impression (PGI) scale Item 1 (efficacy) • Medical Outcomes Study (MOS) Sleep Scale • Beck Depression Inventory (BDI) • In addition, a patient diary was to be completed between days 8 and 15 • HPPD inhibitor plasma concentrations at Baseline, end of treatment and follow-up • Tyrosine plasma concentration at Baseline, end of treatment and follow-up.
Subjects with RLS received either placebo (7 subjects) or an HPPD inhibitor (13 subjects) given as 4 mg on day 1, then 2 mg per day for days 2-14 of the trial. Various parameters relevant to RLS were monitored during the course of treatment, in particular the quality of their sleep patterns using a standard assessment scale (Medical Outcomes Study (MOS) Sleep Scale). Individuals were asked to complete a standard evaluation of their ‘normal’ sleep experience at the start of the trial (Baseline) and again at the end of treatment (EoT), with the various parameters scored according to the attached document.
The MOS Sleep Scale is a comprehensive subject completed sleep questionnaire consisting of 12 items (Hays and Stewart, 1992; Hays et al., 2005). Each item measures a unique aspect or characteristic of sleep. Overall, the MOS Sleep Scale measures the following:
All items, except for item 2, were transformed in a ‘0-100’ scale.
For the analysis of the MOS sleep scale, the following subscales were determined as means of the involved items (in part, after reversing the ratings in the ‘0-100’ scale, denoted by (R) in the item sequence):
Subjects self-reported the length of time it took for them to fall asleep and the average number of hours of sleep each night. Scores for all other items range from 1 (all of the time) to 6 (none of the time).
The MOS Sleep Scale was completed at Baseline (Visit 2) and final examination (Visit 3).

[2] = test system: moderate to severe idiopathic RLS subjects; assay: IRLS scale, placebo-controlled study in RLS subjects; format: in vivo, human
Protocol: as §1
(§3) The objective of this exploratory study was to show proof-of-concept of therapy with an exemplary HPPD inhibitor in moderate to severe idiopathic RLS subjects.
as §2

[3] = test system: moderate to severe idiopathic RLS subjects; assay: Restless Legs Scale - 6 items (RLS-6); format: in vivo, human
Protocol: as §1, §3
(§4) Efficacy parameters were changes between Baseline and end of treatment in objective measures of Periodic Limb Movements (PLM) and sleep efficiency and in investigator evaluations of severity of RLS symptoms as well as in subject's report on severity of RLS symptoms, sleep disturbances and depressive feelings. […]

[4] = test system: moderate to severe idiopathic RLS subjects; assay: Beck Depression Inventory (BDI); format: in vivo, human
Protocol: as §1, §3, §4

[5] = test system: moderate to severe idiopathic RLS subjects; assay: Clinical Global Impressions Scale (CGI): severity, change and treatment effect; format: in vivo, human
Protocol: as §1, §3, §2

[6] = test system: moderate to severe idiopathic RLS subjects; assay: Patients' Global Impression (PGI) scale Item 1 (efficacy); format: in vivo, human
Protocol: as §1, §3, §4

[7] = test system: moderate to severe idiopathic RLS subjects; assay: Patient diary of RLS symptoms; format: in vivo, human
Protocol: as §1, §3, §2

[8] = test system: moderate to severe idiopathic RLS subjects; assay: PSG measurements, Periodic Limb Movement (PLM) index; format: in vivo, human; conditions: log-transformed values on PSG measurements
Protocol: as §1, §3, §4

[9] = Plasma level of HPPD inhibitor and plasma tyrosine at steady state, 2 mg QD vs. 2 mg Q2D (FIG. 3); format: in vivo
Protocol: FIG. 3 is a graphical comparison of the mean plasma level of an exemplary HPPD inhibitor with plasma tyrosine at steady state following 2 mg QD vs. 2 mg Q2D dosing.
FIG. 3 provides an example of plasma tyrosine levels which are essentially identical and independent of whether the HPPD inhibitor is administered once a day or once every two days.

O=C1CCCC(=O)C1C(=O)c1ccc(C(F)(F)F)cc1[N+](=O)[O-] [HPPD Inhibitor, 2-(2-nitro-4-trifluoromethylbenzoyl)-1,3-cyclohexanedione]
MOS Sleep Disturbance Scale, change, Median [1]: −46.3
MOS Sleep Disturbance Scale, change, Range [1]: −68.8-11.3
MOS Sleep Problems Index I, change, M ± SD [1]: −23.8 ± 20.3
MOS Sleep Problems Index I, change, Median [1]: −20.0
MOS Sleep Problems Index I, change, Range [1]: −60.0-3.3
MOS Sleep Problems Index II, change, M ± SD [1]: −25.5 ± 19.9
MOS Sleep Problems Index II, change, Median [1]: −23.9
MOS Sleep Problems Index II, change, Range [1]: −61.7-−1.7
MOS Sleep Quantity, change, M ± SD [1]: 1.8 ± 1.1 h
MOS Sleep Quantity, change, Median [1]: 2.0 h
MOS Sleep Quantity, change, Range [1]: 0.0 to 3.0 h
MOS Snoring Scale, change, M ± SD [1]: −6.2 ± 15.0
MOS Snoring Scale, change, Median [1]: 0.0
MOS Snoring Scale, change, Range [1]: −40.0-20.0
MOS Somnolence Scale, change, M ± SD [1]: −10.3 ± 16.0
MOS Somnolence Scale, change, Median [1]: −13.3
MOS Somnolence Scale, change, Range [1]: −33.3-13.3
IRLS severity score: difference drug-placebo, LS mean ([2]; Baseline to EoT, M-ITT, 95%-CI: −9.75, 2.84, p=0.2636): −3.46
IRLS total score, difference vs placebo ([2]; Baseline to EoT, not seen for IRLS impact score): numerical differences between Baseline and EoT favouring
subjects reporting only mild or moderate RLS symptoms (IRLS scale), number ([2]; EoT, M-ITT, placebo 2): 9 subjects
subjects reporting only mild or moderate RLS symptoms (IRLS scale), percentage ([2]; EoT, M-ITT, placebo 28.6%): 64.3%
RLS-6, all subscales: median (mean) differences between Baseline and EoT vs placebo ([3]; Baseline to EoT): more benefit than those treated with placebo
RLS-6 RLS symptoms during the night: difference drug-placebo, LS mean ([3]; M-ITT, 95%-CI: −4.52, 0.97, p=0.1910 two-sided from ANCOVA): −1.77
RLS-6 RLS symptoms when falling asleep: difference drug-placebo, LS mean ([3]; M-ITT, 95%-CI: −5.24, −0.01, p=0.0494 two-sided from ANCOVA): −2.62
depressive symptoms, mean differences between Baseline and EoT vs placebo [4]: larger reduction of depressive symptoms
CGI severity item, improvement vs placebo ([5]; EoT): larger improvement
CGI severity: subjects not at all or only borderline ill, percentage ([5]; EoT, M-ITT): 21.4%
CGI severity: subjects not at all or only borderline ill, number ([5]; EoT, M-ITT, none on placebo): 3 subjects
CGI severity: subjects with moderate to severe illness, number ([5]; EoT, M-ITT, placebo 5): 7 subjects
CGI severity: subjects with moderate to severe illness, percentage ([5]; EoT, M-ITT, placebo 71.4%): 50.0%
CGI change of condition: subjects very much or much improved (responder analysis), number ([5]; M-ITT, placebo 2): 7 subjects
CGI change of condition: subjects very much or much improved (responder analysis), percentage ([5]; M-ITT, placebo 28.6%): 50.0%
CGI treatment effect rated as very good or moderate, number of subjects ([5]; placebo 3): 8 subjects
CGI treatment effect rated as very good or moderate, percentage of subjects ([5]; placebo 42.9%): 57.1%
PGI: subjects who assessed their therapy as efficacious, number ([6]; placebo 2): 7 subjects
PGI: subjects who assessed their therapy as efficacious, percentage ([6]; placebo 28.6%): 50.0%
patient diary, RLS symptoms during the day when active: difference drug-placebo, LS mean ([7]; M-ITT, 95%-CI: −2.52, −0.04, p=0.0437 two-sided from ANCOVA): −1.28
patient diary, RLS symptoms during the day: difference drug-placebo, LS mean ([7]; M-ITT, 95%-CI: −4.87, −0.27, p=0.0304 two-sided from ANCOVA): −2.57
patient diary, RLS symptoms when falling asleep: difference drug-placebo, LS mean ([7]; M-ITT, 95%-CI: −5.15, −0.13, p=0.0402 two-sided from ANCOVA): −2.64
patient diary, improvement of RLS symptoms during the night and during the day at rest, or during inactivity ([7]; vs placebo): Trends were found
PLM index values, improvement as compared to placebo [8]: slightly larger improvement
steady state plasma tyrosine levels, once a day vs once in two days ([9]; 2 mg once a day vs 2 mg once in 2 days): substantially similar
plasma levels of the HPPD inhibitor, once in two day regimen vs once a day ([9]; 2 mg once in 2 days vs 2 mg once a day, steady state): lower
